{"source": "patent US11753634B2", "about": "“Method and apparatus for applying heat to living tissue” (NATIONAL TAIWAN UNIVERSITY, priority 2019, dated 2023)", "key": {"[1]": {"test_system": "human pancreatic cancer cells (PANC-1)", "test": "cells", "from_the_text": "In addition, for the portion of the living tissue, the human pancreatic cancer cells (PANC-1) are used instead of the neural cells as an example for illustration. Furthermore, the living pancreatic cancer cells are also placed in the culture solution of petri dish in order to perform the heat treatment method of the present invention.\nIn addition, for the portion of the living tissue, the human pancreatic cancer cells (PANC-1) are used as an example for illustration. Furthermore, the living pancreatic cancer cells are also placed in the culture solution of petri dish in order to perform the heat treatment method of the present invention.\nThe control group refers to the comparison group without the heat treatment according to the method of the present invention."}, "[2]": {"test_system": "human neural cells (SH-SY5Y)", "test": "cell viability of human neural cells (SH-SY5Y) with/without cyclic heat treatment", "conditions": "hydrogen peroxide processing"}}, "note": "Read-outs that look alike come from different tables or passages of the source."}
{"smiles": "O=C(/C=C/c1ccc(O)c(O)c1)O[C@@H]1C[C@](O)(C(=O)O)C[C@@H](O)[C@H]1O", "note": "[CGA, chlorogenic acid]", "values": [{"measurement": "viability at 200 µM", "setting": "[1]; PANC-1, read-out: cell viability, PANC-1, 200 μM CGA, ten times of heat treatment, 43.5° C. / approximately 36° C. (FIG. 10B)", "value": 53, "unit": "%"}, {"measurement": "viability at 200 µM", "setting": "[1]; PANC-1, read-out: cell viability, PANC-1, 200 μM CGA, without the heat treatment (FIG. 10B)", "value": 88, "unit": "%"}]}
{"smiles": "Nc1ccn([C@@H]2O[C@H](CO)[C@@H](O)C2(F)F)c(=O)n1", "note": "[Gem, gemcitabine]", "values": [{"measurement": "viability at 5 µM", "setting": "[1]; PANC-1, read-out: cell viability, PANC-1, 5 μM Gem, ten times of heat treatment, 43.5° C. / approximately 36° C. (FIG. 11)", "value": 55, "unit": "%"}, {"measurement": "viability at 5 µM", "setting": "[1]; PANC-1, read-out: cell viability, PANC-1, 5 μM Gem, without the heat treatment (FIG. 11)", "value": 90, "unit": "%"}]}
{"smiles": "OO", "note": "[hydrogen peroxide]", "values": [{"measurement": "cell viability", "setting": "[2]; control group without the heat treatment (FIG. 5A, 5B)", "value": 55, "unit": "%"}, {"measurement": "cell viability", "setting": "[2]; eight times of heat treatment, max 40.9° C. / min 39.4° C. (FIG. 5A)", "value": 70, "unit": "%"}, {"measurement": "cell viability", "setting": "[2]; eight times of heat treatment, max 42.0° C. / min 40.3° C. (FIG. 5B)", "value": 82, "unit": "%"}]}
